Measurements: patent publication US7745431B2, “Pharmaceutical composition of 1-(3,4-dimethoxyphenyl)-4-methyl-5-ethyl-7-methoxy-8-hydroxy-5H-2,3-benzodiazepine and uses thereof” (priority 2002, dated 2010)
Like-named read-outs stand apart in the source and are kept apart here.

How the values were obtained:
rats = details: cited from earlier work
LTB4 receptor = biological target: T1, LTB4 receptor (Cavia porcellus, UniProt H0VYV8); experiment: Inhibition of [3H]LTB4 binding, guinea pig spleen membrane assay
T1 construct: 1.0 mg/mL of the Guinea pig spleen membrane preparation; from tissue; host or cells: guinea pig spleen membranes
T1 sequence (H0VYV8 1-348): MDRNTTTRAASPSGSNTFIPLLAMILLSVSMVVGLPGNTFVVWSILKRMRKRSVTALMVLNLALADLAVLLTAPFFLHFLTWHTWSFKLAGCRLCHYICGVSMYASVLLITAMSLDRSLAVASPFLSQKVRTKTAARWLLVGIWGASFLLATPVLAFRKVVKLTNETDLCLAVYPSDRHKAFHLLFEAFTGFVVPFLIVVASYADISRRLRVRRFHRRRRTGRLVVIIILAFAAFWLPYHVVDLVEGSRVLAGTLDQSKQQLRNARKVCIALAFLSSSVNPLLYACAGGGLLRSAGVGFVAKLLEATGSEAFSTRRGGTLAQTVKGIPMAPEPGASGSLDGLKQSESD
Description: The ability of 1-(3,4-dimethoxyphenyl)-4-methyl-5-ethyl-7-methoxy-8-hydroxy-5H-2,3-benzodiazepine to inhibit [^3H]LTB4 binding to the LTB4 receptor was determined as follows using the guinea pig spleen membrane assay of Cheng et al., J. Pharmacol. Exp. Ther., 236(1), 126-132, 1986, the entire disclosure of which is incorporated herein by reference.
Reactions were carried out in a phosphate buffer (pH 7.4) containing NaCl, MgCl2, EDTA, and bacitracin. The reaction volume of 150 μL containing 1.0 mg/mL of the Guinea pig spleen membrane preparation and 1 nM [^3H]LTB4, with or without a candidate inhibitor, was incubated at 0-4° C. for 2 hours. Candidate inhibitors included the compounds listed in Table 1 and unlabeled LTB4 as a control. The reaction was terminated by rapid vacuum filtration onto glass fiber filters. The filter was washed with cold buffer, dried and placed in a scintillation vial. Radioactivity trapped onto the filters was determined and compared to control values in order to ascertain any interactions of the test compound with the LTB4 binding site.

TXA2 receptor = biological target: T2, TXA2 receptor (Homo sapiens, UniProt P21731); experiment: TXA2 binding assay, [3H]SQ 29,548, human platelet-based; details: for inhibition at 10 µM: inhibition of [3H]SQ 29,548 binding, human platelets
T2 construct: determined via the human platelet-based assay of Hedberg et al; from tissue; host or cells: human platelets
T2 sequence (P21731 1-343): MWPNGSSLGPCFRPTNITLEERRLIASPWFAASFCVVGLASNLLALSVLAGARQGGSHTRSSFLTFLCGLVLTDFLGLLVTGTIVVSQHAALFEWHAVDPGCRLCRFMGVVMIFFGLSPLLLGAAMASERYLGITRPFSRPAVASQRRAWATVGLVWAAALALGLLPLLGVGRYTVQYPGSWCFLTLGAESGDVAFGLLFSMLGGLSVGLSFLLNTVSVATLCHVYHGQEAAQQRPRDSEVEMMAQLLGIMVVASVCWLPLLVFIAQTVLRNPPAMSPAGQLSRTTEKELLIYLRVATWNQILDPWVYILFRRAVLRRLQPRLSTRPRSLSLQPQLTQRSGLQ
Description: The ability of 1-(3,4-dimethoxyphenyl)-4-methyl-5-ethyl-7-methoxy-8-hydroxy-5H-2,3-benzodiazepine to inhibit the binding of [^3H]SQ 29,548 (30-60 Ci/mmol) was determined via the human platelet-based assay of Hedberg et al., “Characterization of [^3H]SQ 29,548 as a High Affinity Radioligand Binding to Thromboxane A2—Receptors in Human Platelets.”, J. Pharmacol. Exp. Ther. 245: 786-792 (1988), with modifications. TXA2 is a very unstable molecule, thus a surrogate ligand of known affinity for the TXA2 receptor is required as a standard for determination of binding affinity of new potential TXA2 ligands. [^3H]SQ 29,548 is a ligand with known binding affinity for the TXA2 receptor. [^3H]SQ 29,548 has been employed as a TXA2 ligand in several published studies, is accepted as a TXA2 binding standard, and is thus useful as a standard in assessing the binding affinity of new compounds to the TXA2 receptor. See also, Armstrong, R. A., Jones, R. L., et al. “Ligand Binding to Thromboxane Receptors on Human Platelets: Correlation with Biological Activity.” Brit. Jrnl. Pharmac. 79:953-964 (1983), the entire disclosures of which are incorporated herein by reference.
Reactions were carried out in 25 mM TRIS-HCl (pH 7.4) containing 138 mM NaCl, 5 mM KCl, 5 mM MgCl2, 5.5 mM dextrose, and 2 mM EDTA at 25° C. for 60 minutes. […] The reaction was terminated by rapid vacuum filtration onto glass fiber filters. Radioactivity trapped onto the filters was determined and compared to control values in order to ascertain any interactions of test compound with the thromboxane A2 binding site.

mice [1] = details: cited from earlier work
mice [2] = details: cited from earlier work; remark: listed apart in the source
adenosine receptor = experiment: Adenosine binding assay, [3H]-NECA, bovine striatal membrane
Description: The ability of 1-(3,4-dimethoxyphenyl)-4-methyl-5-ethyl-7-methoxy-8-hydroxy-5H-2,3-benzodiazepine to inhibit the binding of [^3H]5′-N-ethylcarboxamidoadenosine (NECA) (15-30 Ci/mmol) was determined via the bovine striatal membrane assay of Bruns et al., “Characterization of the A2 Adenosine Receptor Labeled by [^3H]-NECA in Rat Striatal Membrane”, Pharmacology, 29: 331-346 (1986), with modifications. See also, Weir et al. “Inhibition of N6-[^3H]CHA Binding by Carbamazepine” Epilepsia, 31(5), 503-512 (1990) with modifications; and Holtzman et al., “Role of Adenosine Receptors in Caffeine Tolerance,” J. Pharmacol. & Exp. Ther., 256(1), 62-67 (1990).
Reactions were carried out in 50 mM TRIS-HCl (pH 7.7) at 25° C. for 60 minutes. The reaction was terminated by rapid vacuum filtration onto glass fiber filters. Radioactivity trapped onto the filters was determined and compared to control values in order to ascertain any interactions of test compound with the adenosine binding site.

peripheral BZ receptors = peripheral BZ receptors (Homo sapiens, UniProt P30536); details: cited from earlier work
Sequence of peripheral BZ receptors (P30536 whole entry): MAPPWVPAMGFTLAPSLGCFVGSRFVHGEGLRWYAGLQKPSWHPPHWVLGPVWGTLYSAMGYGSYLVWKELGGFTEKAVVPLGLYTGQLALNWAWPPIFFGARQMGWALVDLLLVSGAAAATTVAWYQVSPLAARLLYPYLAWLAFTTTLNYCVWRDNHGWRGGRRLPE

central BZ receptors = details: cited from earlier work
Male Swiss mice = experiment: Mouse maximal electroshock test; assay type: in vivo; details: for Duration of tonic seizure Mean ± SEM: i.p., about 30 min before electroshock, mice; for anticonvulsant activity: vs. vehicle
Description: In this model of tonic-clonic seizure activity, seizures were produced by application of an AC current via corneal electrodes. The maximal electroshock model is commonly employed to assay anticonvulsant activity. See, Swinyard et al., J. Pharmacol. Exp. Therap., 1952, 106, 319-330; the entire disclosure of which is incorporated herein by reference.
Each animal was dosed with one of:
(1) diazepam, 20 mg/kg dissolved in normal saline as a reference standard;
(2) 1-(3,4-dimethoxyphenyl)-4-methyl-5-ethyl-7-methoxy-8-hydroxy-5H-2,3-benzodiazepine at a dose of 15, 30, 45 or 60 mg/kg; dissolved in 15% DMSO, 35% PEG and 50% deionized water (vehicle); or
(3) vehicle comprising 15% DMSO, 35% PEG and 50% deionized water.
The concentrations of each of the dosed substances were normalized such that the volume of each dose was 10 mL/kg.
Approximately thirty minutes following administration of the above dose, full tonic-clonic seizures were induced in the animals by applying an AC current (50 Hz, 50 mA, 0.2 seconds) using an ECT unit 7800 (Ugo Basile, Comerio, Italy) through corneal electrodes. The appearance and duration of the induced seizures, as characterized by a tonic extension of hindlimbs past 90° were recorded. The seizure data are reproduced in Table 4 showing the seizure data as a mean with a standard error of the mean.

Molecule	inhibition of muricide (rats)	inhibition at 10 µM (LTB4 receptor)	inhibition at 10 µM (TXA2 receptor)	inhibition of aggression (mice [1])	Adenosine non-selective @ 10 μM (inhibition of [3H]-NECA binding) (adenosine receptor)	other results
CCC1C(C)=NN=C(c2ccc(O)c(OC)c2)c2cc(OC)c(OC)cc21 (stereo not drawn) [Compound 3, 1-(3-methoxy-4-hydroxyphenyl)-4-methyl-5-ethyl-7,8-dimethoxy-5H-2,3-benzodiazepine]	0%	49.9%	1.98%	0%	inactive	narcosis-potentiating activity (mice [2]): demonstrate narcosis-potentiating activity
CCC1C(C)=NN=C(c2ccc(OC)c(OC)c2)c2cc(OC)c(OC)cc21 (stereo not drawn) [tofisopam]	–	–	–	–	–	binding to peripheral BZ receptors (peripheral BZ receptors): binds only weakly; interaction with central BZ receptors (central BZ receptors): does not interact
CCC1C(C)=NN=C(c2ccc(OC)c(OC)c2)c2cc(OC)c(O)cc21 (stereo not drawn) [Compound 1, 1-(3,4-dimethoxyphenyl)-4-methyl-5-ethyl-7-hydroxy-8-methoxy-5H-2,3-benzodiazepine]	20%	20.4%	42.7%	0%	6.73%	–
CCC1C(C)=NN=C(c2ccc(O)c(OC)c2)c2cc(OC)c(O)cc21 (stereo not drawn) [Compound 5, 1-(3-methoxy-4-hydroxyphenyl)-4-methyl-5-ethyl-7-hydroxy-8-methoxy-5H-2,3-benzodiazepine]	20%	–	44%	28.6%	22.40%	LTB4 % inhibition @ 10 μM (LTB4 receptor): inactive
CCC1C(C)=NN=C(c2ccc(OC)c(O)c2)c2cc(OC)c(OC)cc21 (stereo not drawn) [Compound 4, 1-(3-hydroxy-4-methoxyphenyl)-4-methyl-5-ethyl-7,8-dimethoxy-5H-2,3-benzodiazepine]	–	63.9%	25.9%	–	4.26%	–
Pinane-thromboxane	–	–	–	–	–	Ki (TXA2 receptor; competitor in the [3H]SQ 29,548 binding assay): 149 nM
CN1C(=O)CN=C(c2ccccc2)c2cc(Cl)ccc21 [Diazepam, diazepam]	–	–	–	–	–	Duration of tonic seizure Mean ± SEM (Male Swiss mice; 20 mg/kg): 1.8 ± 0.7 s
CCC1C(C)=NN=C(c2ccc(OC)c(O)c2)c2cc(OC)c(O)cc21 (stereo not drawn) [Compound 6, 1-(3-hydroxy-4-methoxyphenyl)-4-methyl-5-ethyl-7-hydroxy-8-methoxy-5H-2,3-benzodiazepine]	–	–	45.7%	–	27.52%	LTB4 % inhibition @ 10 μM (LTB4 receptor): inactive
CCC1C(C)=NN=C(c2ccc(OC)c(OC)c2)c2cc(O)c(OC)cc21 (racemic) [Compound 2, 1-(3,4-dimethoxyphenyl)-4-methyl-5-ethyl-7-methoxy-8-hydroxy-5H-2,3-benzodiazepine]	–	36%	48.3%	–	61.50%	LTB4 % inhibition @ 10 μM (LTB4 receptor; 10 µM): 35.96%; Duration of tonic seizure Mean ± SEM (Male Swiss mice; 15 mg/kg): 9.0 ± 2.5 s; Duration of tonic seizure Mean ± SEM (Male Swiss mice; 30 mg/kg): 5.5 ± 1.1 s; Duration of tonic seizure Mean ± SEM (Male Swiss mice; 45 mg/kg): 6.5 ± 1.7 s; anticonvulsant activity (Male Swiss mice; 60 mg dose): comparable anticonvulsant activity, but fell short of statistical significance; Duration of tonic seizure Mean ± SEM (Male Swiss mice; 60 mg/kg): 5.7 ± 1.8 s; anticonvulsant activity (Male Swiss mice; 30 and 45 mg/kg doses): statistically significant anticonvulsant activity
